Source: US9028879B2, “Chromium complexes as enhancers of brain glucose transporters” (JDS Therapeutics, LLC, priority 2009, dated 2015)
Marks after values point to notes of the source that are not given here.

How the values were obtained:
[1] = Body weight and blood glucose in high fat diet rats; assay type: in vivo, male Wistar rats
Text: (§1) Briefly, insulin resistance and hyperglycemia were induced in male Wistar rats by feeding a high fat diet (HFD, 40% of calories as fat). A healthy control group received a standard diet (12% of calories as fat). Rats were fed their diets throughout the 12 week study.
(§2) Rats (10/group) were divided into groups: healthy control (Control), HFD, and HFD+CrHis. Chromium (Cr) treated rats were fed CrHis (110 mcg/kg body wt/d). Cr treatment started at the beginning of the study and was continued for 12 weeks. […] Body weight, serum chromium levels, and blood glucose levels were also measured.

[2] = Serum and brain chromium levels in high fat diet rats
Text: as §1, §2

[3] = system: subject having GLUT1 deficiency syndrome; test: Example 3: treatment of subject with GLUT1 deficiency syndrome; assay type: in vivo; conditions: 50 μg to 5000 μg/day, orally, after a period of time
Text: A subject is identified as having GLUT1 deficiency syndrome. The subject presents with one or more symptoms associated with GLUT1 deficiency syndrome such as the presence of a SLC2A1 mutation, neurological problems associated with GLUT1 deficiency such as stiffness caused by abnormal tensing of the muscles (spasticity), difficulty in coordinating movements (ataxia), and speech difficulties (dysarthria). The subject can experience episodes of confusion, lack of energy (lethargy), headaches, muscle twitches (myoclonus), or involuntary irregular eye movements, particularly before meals.
The subject is administered between 50 μg and 5000 μg chromium histidinate, chromium picolinate, or chromium histidinate/chromium picolinate combination complex/day. The chromium histidinate is administered orally.

[4] = system: subject having Parkinson's disease; test: Example 6: treatment of subject with Parkinson's disease; assay type: in vivo; conditions: 50 μg to 5000 μg, orally, over time
Experimental: A subject is identified as having Parkinson's disease by conventional methods.
The subject is administered between 50 μg and 5000 μg chromium polyhistidinate. The chromium is administered orally.

[5] = system: subject having Alzheimer's disease; test: Example 5: treatment of subject with Alzheimer's disease with standard therapeutics; assay type: in vivo; conditions: 50 μg to 5000 μg chromium orally with standard therapeutics, over a period of five days
[6] = reported (Kaats 1998; Cefalu 1999); cited from earlier work
[7] = HFD rats, CrHis 110 mcg/kg body wt/d, 12 weeks, mean ± s.e.m.
[8] = compared to the high fat diet alone

Substance	Blood Glucose [1, 7]	Body Weight [1, 7]	blood glucose levels, change [1, 8]	body weight, change [1, 8]	Brain Chromium ([2]; HFD rats, CrHis 110 mcg/kg body wt/d, 12 weeks, brain tissue homogenates, mean ± s.e.m.)	Serum Chromium [2, 7]	brain chromium levels, change [2, 8]	serum chromium levels, change [2, 8]	symptoms of GLUT1 deficiency [3]	subject's condition, as assessed by one or more symptoms of the disease [4]	subject's condition, as assessed by one or more symptoms of the disease [5]	weight loss and changes in body composition [6]
chromium histidinate [CrHis]	116.4 ± 2.1^c mg/dL	315.1 ± 1.9^c g	decreased	decreased	17.7 ± 0.2^c ng/g	22.0 ± 0.6^c ng/g	significantly increased	significantly increased	reduction in one or more of the symptoms			
chromium polyhistidinate										does not worsen or improves		
chromium picolinate									reduction in one or more of the symptoms		does not worsen or improves	modest weight loss
